Data: patent publication US10294202B2, “Pyrrolidinones as herbicides” (FMC Corporation, priority 2013, dated 2019)

Key:
crabgrass, large = assay: Test A pre-/postemergence herbicide test; type: in vivo, Digitaria sanguinalis
Method in brief: (§1)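 Seeds sown in loam soil/sand blend received a preemergence directed soil spray of test chemical in non-phytotoxic solvent with surfactant; postemergence plants (2–10 cm, one- to two-leaf stage) were sprayed with the same formulation. After about 10 days in greenhouse, injury was rated visually versus untreated controls, 0 (no effect) to 100 (complete control).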

morningglory = assay: Test A pre-/postemergence herbicide test; type: in vivo, Ipomoea spp.
Method in brief: as §1

velvetleaf = assay: Test A pre-/postemergence herbicide test; type: in vivo, Abutilon theophrasti
Method in brief: as §1

rice = assay: Test C flooded paddy test; type: in vivo, Oryza sativa; conditions: Flood
Method in brief: (§2)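 Visual ratings from 0, no effect, to 100, complete control, were made against untreated controls after 13–15 greenhouse days. Compounds had gone straight into paddy water 3 cm above the soil, kept at that depth, on 2-leaf-stage plants.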

sedge, umbrella = assay: Test C flooded paddy test; type: in vivo, Cyperus difformis; conditions: Flood
Method in brief: as §2

barnyardgrass = assay: Test C flooded paddy test; type: in vivo, Echinochloa crus-galli; conditions: Flood
Method in brief: as §2

kochia = assay: Test A pre-/postemergence herbicide test; type: in vivo, Kochia scoparia; conditions: for Plant response rating, Kochia: 0 to 100 scale
Method in brief: as §1

ragweed = assay: Test A pre-/postemergence herbicide test; type: in vivo, Ambrosia elatior; conditions: for Plant response rating, Ragweed: 0 to 100 scale
Method in brief: as §1

ryegrass, Italian = assay: Test A pre-/postemergence herbicide test; type: in vivo, Lolium multiflorum; conditions: for Plant response rating, Ryegrass, Italian: 0 to 100 scale
Method in brief: as §1

blackgrass = assay: Test A postemergence herbicide test; type: in vivo, Alopecurus myosuroides
Method in brief: (§3)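 Ratings compare treated with untreated plants roughly 10 days after a postemergence application made at the one- to two-leaf stage. Scoring uses 0–100, where 0 means no effect and 100 complete control.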

galium = assay: Test A postemergence herbicide test; type: in vivo, Galium aparine; conditions: for Plant response rating, Galium: 125 g ai/ha, 0 to 100 scale; for Galium plant response rating (0 to 100 scale, 0 is no effect, 100 is complete control): 500 g ai/ha
Method in brief: as §3

[1] = Postemergence, 125 g ai/ha, 0 to 100 scale, 0 no effect, 100 complete control
[2] = Postemergence, 500 g ai/ha, 0 to 100 scale (0 no effect, 100 complete control)
[3] = Preemergence, 125 g ai/ha, visual rating on 0 to 100 scale (0 no effect, 100 complete control)
[4] = preemergence, 500 g ai/ha, 0 to 100 scale
[5] = 125 g ai/ha, visual rating, 0 no effect, 100 complete control, approximately 10 days, preemergence
[6] = Postemergence, 125 g ai/ha, 0 no effect, 100 complete control
[7] = 62 g ai/ha, scale of 0 to 100 where 0 is no effect and 100 is complete control, 13 to 15 days
[8] = 125 g ai/ha, scale of 0 to 100 where 0 is no effect and 100 is complete control, 13 to 15 days
[9] = Postemergence, 125 g ai/ha, 0 is no effect, 100 is complete control
[10] = preemergence, 500 g ai/ha, 0 is no effect and 100 is complete control
[11] = 250 g ai/ha, scale of 0 to 100 where 0 is no effect and 100 is complete control, 13 to 15 days

Compound	Plant response rating, Rice (rice; 250 g ai/ha, scale 0 to 100)	Plant response rating, Rice (rice; 500 g ai/ha, scale 0 to 100)	Plant response rating, Rice (rice; 1000 g ai/ha, scale 0 to 100)	Plant response rating, Sedge, Umbrella (sedge, umbrella; 250 g ai/ha, scale 0 to 100)	Plant response rating, Sedge, Umbrella (sedge, umbrella; 500 g ai/ha, scale 0 to 100)	Plant response rating, Sedge, Umbrella (sedge, umbrella; 1000 g ai/ha, scale 0 to 100)	Plant response rating, Barnyardgrass (barnyardgrass; 250 g ai/ha, scale 0 to 100)	Plant response rating, Barnyardgrass (barnyardgrass; 500 g ai/ha, scale 0 to 100)	Plant response rating, Barnyardgrass (barnyardgrass; 1000 g ai/ha, scale 0 to 100)	Plant response rating, Kochia (kochia; [5])	Kochia plant response rating (0 to 100 scale, 0 is no effect, 100 is complete control) (kochia; Postemergence, 500 g ai/ha)	Plant response rating, Ragweed (ragweed; [5])	Ragweed plant response rating (0 to 100 scale, 0 is no effect, 100 is complete control) (ragweed; Postemergence, 500 g ai/ha)	Plant response rating, Ryegrass, Italian (ryegrass, Italian; [5])	Ryegrass, Italian plant response rating (0 to 100 scale, 0 is no effect, 100 is complete control) (ryegrass, Italian; Postemergence, 500 g ai/ha)	Galium plant response rating (0 to 100 scale, 0 is no effect, 100 is complete control) (galium)	Plant response rating, Rice (rice; [8])	Plant response rating, Sedge, Umbrella (sedge, umbrella; [8])	Plant response rating, Barnyardgrass (barnyardgrass; [8])	further results
O=C1NCC(c2ccc(F)c(C(F)(F)F)c2)C1C(=O)Nc1cccc(F)c1F (racemic) [Compound 77]	0	0	20	0	0	20	20	30	40											Plant response rating, Crabgrass, Large (crabgrass, large; [1]): 80; Plant response rating, Crabgrass, Large (crabgrass, large; [2]): 80; Crabgrass, Large plant response rating (crabgrass, large; [3]): 90; Plant response rating, Crabgrass, Large (crabgrass, large; [4]): 90; Plant response rating, Morningglory (morningglory; [1]): 0; Plant response rating, Morningglory (morningglory; [2]): 30; Morningglory plant response rating (morningglory; [3]): 20; Plant response rating, Morningglory (morningglory; [4]): 60; Plant response rating, Velvetleaf (velvetleaf; [1]): 20; Plant response rating, Velvetleaf (velvetleaf; [2]): 40; Velvetleaf plant response rating (velvetleaf; [3]): 0; Plant response rating, Velvetleaf (velvetleaf; [4]): 0; Plant response rating, Rice (rice; 2000 g ai/ha, scale 0 to 100): 60; Plant response rating, Sedge, Umbrella (sedge, umbrella; 2000 g ai/ha, scale 0 to 100): 40; Plant response rating, Barnyardgrass (barnyardgrass; 2000 g ai/ha, scale 0 to 100): 70
O=C1NCC(c2ccc(F)cc2)C1C(=O)Nc1ccc(F)c(F)c1F (racemic) [Compound 120]	0	0		0	0		60	75		60	70	60	50	30	50	60	0	0	50	Plant response rating, Kochia (kochia; [6]): 60; Plant response rating, Kochia (kochia; preemergence, 500 g ai/ha): 80; Plant response rating, Ragweed (ragweed; [6]): 30; Plant response rating, Ragweed (ragweed; preemergence, 500 g ai/ha): 80; Plant response rating, Ryegrass, Italian (ryegrass, Italian; [6]): 30; Plant response rating, Ryegrass, Italian (ryegrass, Italian; preemergence, 500 g ai/ha): 50; Plant response rating, Blackgrass (blackgrass; 125 g ai/ha, 0 to 100 scale, 0 no effect, 100 complete control): 40; Plant response rating, Blackgrass (blackgrass; 500 g ai/ha, 0 to 100 scale (0 no effect, 100 complete control)): 50; Plant response rating, Galium (galium; 0 no effect, 100 complete control): 50; Plant response rating, Rice (rice; [7]): 0; Plant response rating, Sedge, Umbrella (sedge, umbrella; [7]): 0; Plant response rating, Barnyardgrass (barnyardgrass; [7]): 40
O=C1NCC(c2cccc(C(F)F)c2)C1C(=O)Nc1ccccc1F (racemic) [Compound 210]		0	0		0	0		70	75	0	60	0	0	0	50	60	0	0	0	Plant response rating, Kochia (kochia; [9]): 20; Plant response rating, Kochia (kochia; [10]): 30; Plant response rating, Ragweed (ragweed; [9]): 0; Plant response rating, Ragweed (ragweed; [10]): 30; Plant response rating, Ryegrass, Italian (ryegrass, Italian; [9]): 0; Plant response rating, Ryegrass, Italian (ryegrass, Italian; [10]): 50; Plant response rating, Blackgrass (blackgrass; 125 g ai/ha, 0 to 100 scale, 0 is no effect, 100 is complete control): 30; Blackgrass plant response rating (0 to 100 scale, 0 is no effect, 100 is complete control) (blackgrass; 500 g ai/ha): 60; Plant response rating, Galium (galium; 0 is no effect, 100 is complete control): 30; Plant response rating, Rice (rice; [11]): 0; Plant response rating, Sedge, Umbrella (sedge, umbrella; [11]): 0; Plant response rating, Barnyardgrass (barnyardgrass; [11]): 45
